This note sets out measurements from patent publication US20250009632A1, “HEIGHT-ADJUSTABLE SPRINKLER” (BTGIN CO., LTD., priority 2021, published 2025).

The test system of assay [1] is S. mutans. The experiment in a line: Amount of organic acid produced in dental plaque (HPLC of S. mutans culture medium). The assay is classed as cell-based, Streptococcus mutans. The conditions noted are these: 48 h culture, high concentration (100 μg/ml). The method, then:
• 1) To a brain heart infusion (BHI) broth (2 ml), 20 μl of each of sample extracts by concentrations in Table 3 below was added. For a control group, sterilized water was used instead of sample extracts. • 2) S. mutans was inoculated to reach 10^5-10^6. • 3) The cells were cultured in an incubator at 37° C. for 48 hours. • 4) The amount of the acid secreted in the medium was measured using HPLC.
**HPLC: analyzed by the joint equipment research lab of Dankook University Industry-Academia Cooperation (Citric, pyruvic, succinic, lactic, formic, acetic, propionic, isobutyric, butyric, and isovaleric acid).
S. mutans strain was inoculated into 2 ml of the brain heart infusion (BHI) liquid medium at a concentration of 1×10^5 CFU/ml, and a predetermined concentration of each sample was injected, followed by culturing for 48 hours. The culture was centrifuged at 13,000 rpm for 5 minutes, and then the supernatant was transferred to a new tube and filtered with a 0.45 μm syringe filter. Thereafter, HPLC analysis was performed. HPLC analysis conditions are as follows. Mobile phase (Isocratic elution): 10 mM potassium phosphate monobasic (pH 3, a phosphoric acid salt)/MeOH=(98/2), Column oven Temp.: 30° C., flow rate: 1 ml/min, wavelength: 220 nm, and injection amount: 10 μl

The subject of assay [2] is S. mutans. The experiment in a line: Analysis of dental plaque reduction (S. mutans attached to glass tube wall, absorbance at 550 nm). It is filed as cell-based, Streptococcus mutans. As to the method: • 1) A brain heart infusion (BHI) broth (5 ml) containing 1% sucrose was added in 50 ml glass tube, and 50 μl of each of sample extracts by concentrations shown in Table 2 below was added. For a control group, sterilized water was used instead of sample extracts. • 2) S. mutans was inoculated to reach 10^5. • 3) The glass tube was cultured statically in an incubator at 37° C. for 24 hours while tilted at 30°. • 4) After culturing, 5 ml of 0.5 M NaOH solution was added to suspend the cells attached to the wall. • 5) One milliliter of suspension was taken and measured for absorbance at 550 nm. S. mutans strain was cultured statically for 24 hours after inoculation while tilted at 30°. When the culture medium was carefully poured out after the static culture, it was observed that bacteria were attached to the wall of the glass tube (FIG. 1, red arrow). Thereafter, the bacteria were suspended by addition of 0.5 M NaOH, and 1 ml of the suspended solution was measured for absorbance at 550 nm. As a result, there was a reduction in dental plaque from a BTEX-K concentration of 50 μg/ml.

Regarding `CC(C)=CCC[C@](C)(O[C@@H]1O[C@H](CO)[C@@H](O)[C@H](O)[C@H]1O)[C@H]1CC[C@]2(C)[C@@H]1[C@H](O)C[C@@H]1[C@@]3(C)CC[C@H](O)C(C)(C)[C@@H]3CC[C@]12C` [ginsenoside compound K], the “reduction in lactic acid content compared to the control group” value with S. mutans [1] (HPLC, p<0.0001) is reported as “approximately 2 fold”. In addition, the “HPLC peak at retention time of around 4.6 minutes (lactic acid)” value with S. mutans [1] (vs control) is given as “decreased”. The “growth of S. mutans strain” value with S. mutans [2] (at 100 μg/ml, as seen in the dental plaque reduction experiment) is reported as “inhibited”. In addition, the “concentration at which dental plaque reduction was observed” value in the assay with S. mutans [2] (summary statement, absorbance at 550 nm) came to 20 µg/mL.
